SMILES strings stand for the structures.

Series [1] can be described thus: Phenoxy radical formation and stability by ESR after reaction of stabilising compound with benzoyl peroxide in toluene. The conditions noted are these: 2% by weight each of compound and benzoyl peroxide in toluene; 70° C. for 24 hours, then at rest to ambient temperature. An excerpt: In the case of stabilising compounds of phenolic nature, phenolic radicals characterised by long life have to form within the polymer in order for the antioxidant activity of the stabilising compound to take effect, and therefore the formation and stability of radicals of this type, originating from the reaction between the stabilising compounds of the present invention and benzoyl peroxide in toluene, are taken as parameters for evaluating the stabilising action of the stabilising compounds concerned.
In particular, in this test, toluene solutions containing 4% by weight of the stabilising compound are prepared simultaneously with solutions containing the same weight percentage of benzoyl peroxide. A small quantity of the stabilising compound solution is then mixed with an equal quantity of the benzoyl peroxide solution.
After mixing, a solution containing 2% by weight of each component is obtained. 1 ml of the resultant solution is then transferred to an ESR (electronic spin resonance) sample tube where it is degassed and sealed under vacuum. The system obtained in this manner is heated to 70° C. for 24 hours. The radical stability is checked by ESR spectra both during the 24 hour heating period and during the subsequent time, in which the system is left at rest to cool to ambient temperature.

Series [2] is described as follows: Accelerated oven ageing of polypropylene film: growth of carbonyl index (IR band at 1720 cm^-1). The conditions noted are these: air circulation oven at 140° C.; 0.1% of the weight of the polymer; 100 μm film; extrapolated to zero carbonyl index; absent stabiliser: 2. As to the method:
(§1) Accelerated thermal ageing tests are also carried out on polypropylene stabilised by the stabilising compounds of the present invention, and in particular the following tests are carried out:
measurements of the growth of the carbonyl index on polypropylene film containing the stabilising compound and subjected to thermal treatment; and
In the first case, the carbonyl index is evaluated from the IR spectrum for the film, by measuring the band intensity at 1720 cm^-1, and is defined by the relationship: [formula] where Io is the initial band intensity, It is the intensity at time t and S is the film thickness in μm.
The polypropylene film containing the stabilising compound is prepared by dissolving the stabilising compound in benzene and mixing the resultant solution with powdered polypropylene containing no other additive.
The stabilising compound is added in a quantity of 0.1% of the weight of the polymer. The benzene is then removed by evaporation under reduced pressure, and the residual powder is pressed into a film of 100 μm thickness.
The pressing is carried out at a temperature of 160° C. under a pressure of 900 kg/cm^2 for a time of 5 minutes. The film is extracted from the press and is rapidly cooled under running water.
The film prepared in this manner is then subjected to accelerated ageing in an air circulation oven at 140° C.
(§2) The polypropylene used for the tests is the commercial product Moplen® FL 20F of the Montedison Company.
Time of oven treatment (at 140° C.) required for inducing the formation of the IR band at 1720 cm^-1 in polypropylene films without stabilising compound and with stabilising compound.

Series [3] in a line: Melt flow index variation of stabilised polypropylene on repeated extrusion. The conditions noted are these: ASTM-D1238, 90° C., 2.16 kg/cm^2. Also on record: unit not given here. The protocol:
as §1
measurements of the variation in the melt flow index of the polypropylene containing the stabilising compound and subjected to repeated extrusion.
Finally, the melt flow index variation measurements are carried out on polypropylene powder mixed with the stabilising compound by stirring for 30 minutes in a planetary mixer. The repeated extrusions are carried out in an extruder of 19 mm diameter, of length 25 times its diameter, and provided with a 2 mm nozzle and a screw, the compression ratio being 1:4, the speed being 50 r.p.m. The temperature profile along the extruder is 175° C.; 230° C.; 270° C.; 270° C.
After each extrusion, the filament obtained is cut into granules to be subjected to a new extrusion passage.
At the end of each passage, some of the granules are used for measuring the melt flow index in accordance with ASTM-D1238, operating at 90° C. and at a pressure of 2.16 kg/cm^2.
The melt flow index values after 1, 3, 5 and 7 passages through the extruder are shown for polypropylene stabilised by certain stabilisers according to the present invention in Table 3.
as §2
Melt flow index of polypropylene containing the stabilising compound as a function of the number of successive passages through the extruder.

On to `CC(C)(C)c1cc(CCC(=O)Oc2cccc(OC(=O)CCc3cc(C(C)(C)C)c(O)c(C(C)(C)C)c3)c2OC(=O)CCc2cc(C(C)(C)C)c(O)c(C(C)(C)C)c2)cc(C(C)(C)C)c1O` [Example 1, benzene-1,2,3-tri[3-(4'-hydroxy-3',5'-di-tert-butylphenyl)propionate]], for which, in series [1], the “t 1/2: time required to reduce to one half the ESR signal intensity for the phenoxy radicals” value (“t 1/2: time required to reduce” for short) worked out at 20 h and the “t 1/4: time required to reduce to one quarter the ESR signal intensity for the phenoxy radicals” value (shortened to “t 1/4: time required to reduce”) turned out to be 100 h. In addition, the “Induction time for the formation of the IR band at 1720 cm^-1 (carbonyl band) in polypropylene films” value (from here on “Induction time for the formation”) in series [2] was 260 h.
Regarding `CC(C)(C)c1cc(CCC(=O)Oc2cc(C(=O)O)cc(OC(=O)CCc3cc(C(C)(C)C)c(O)c(C(C)(C)C)c3)c2OC(=O)CCc2cc(C(C)(C)C)c(O)c(C(C)(C)C)c2)cc(C(C)(C)C)c1O` [Example 2, benzene-3,4,5-tri[3-(4'-hydroxy-3',5'-di-tert-butylphenyl)propionate]-1-carboxylic acid], in series [2], the “Induction time for the formation” value is 160 h.
In the case of `CC(C)(C)c1cc(CCC(=O)OCCOc2ccc(OCCOC(=O)CCc3cc(C(C)(C)C)c(O)c(C(C)(C)C)c3)cc2)cc(C(C)(C)C)c1O` [Example 3, 1,4-phenylene-bis-(oxyethylidene)-bis-[3-(4'-hydroxy-3',5'-di-tert-butylphenyl)propionate]], in series [1], the “t 1/2: time required to reduce” value turned out to be 24 h. For the same compound, in series [1], the “t 1/4: time required to reduce” value was 90 h. Moreover, the “Melt flow index of polypropylene containing the stabilising compound” value in series [3] (1 extrusion) is on record as 7.34; in series [3] (3 extrusions), 9.91; in series [3] (5 extrusions), 12.59; in series [3] (7 extrusions), 14.61. Also, the “Induction time for the formation” value in series [2] is 575 h.
In the case of `CC(C)(C)c1cc(CCC(=O)Nc2ccc(OC(=O)CCc3cc(C(C)(C)C)c(O)c(C(C)(C)C)c3)cc2)cc(C(C)(C)C)c1O` [Example 4, phenylene-1-[3-(4'-hydroxy-3',5'-di-tert-butylphenyl)propionate]-4-[3-(4'-hydroxy-3',5'-di-tert-butylphenyl)propionamide]], the “t 1/2: time required to reduce” value in series [1] turned out to be 15 h. Also, the “t 1/4: time required to reduce” value in series [1] was found to be 150 h. Also, the “Melt flow index of polypropylene containing the stabilising compound” value in series [3] (1 extrusion) was 7.42; in series [3] (3 extrusions) it was 10.36; in series [3] (5 extrusions), 13.09; in series [3] (7 extrusions) it was 15.78.
